How the values were obtained:
Interstitial collagenase = molecular target: T1, Interstitial collagenase (Homo sapiens, UniProt P03956); assay: In vitro inhibition of Matrix metalloprotease-1.
T1 sequence (P03956 whole entry): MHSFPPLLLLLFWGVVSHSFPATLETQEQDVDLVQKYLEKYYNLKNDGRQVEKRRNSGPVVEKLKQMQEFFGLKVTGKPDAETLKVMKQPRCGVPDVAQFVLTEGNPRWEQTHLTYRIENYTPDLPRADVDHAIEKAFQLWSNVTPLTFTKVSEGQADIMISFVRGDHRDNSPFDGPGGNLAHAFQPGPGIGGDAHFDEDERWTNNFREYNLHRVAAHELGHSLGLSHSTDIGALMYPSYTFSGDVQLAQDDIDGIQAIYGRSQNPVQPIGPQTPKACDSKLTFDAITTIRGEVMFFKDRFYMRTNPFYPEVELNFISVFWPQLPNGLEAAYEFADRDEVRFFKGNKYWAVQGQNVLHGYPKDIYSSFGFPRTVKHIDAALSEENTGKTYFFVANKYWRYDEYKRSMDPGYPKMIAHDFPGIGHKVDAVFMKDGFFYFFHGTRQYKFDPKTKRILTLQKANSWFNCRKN

[1] = molecular target: Matrix metalloproteinase-9 (Homo sapiens, UniProt P14780); assay: In vitro inhibition of Matrix metalloprotease-9
[2] = molecular target: Disintegrin and metalloproteinase domain-containing protein 17 (Sus scrofa, UniProt O77636); assay: In vitro inhibition of TNF-alpha converting enzyme.
[3] = molecular target: 72 kDa type IV collagenase (Homo sapiens, UniProt P08253)
Description: In vitro inhibition of Matrix metalloprotease-2

[4] = molecular target: Disintegrin and metalloproteinase domain-containing protein 17 (Homo sapiens, UniProt P78536); assay: Inhibition of TNF-alpha production from LPS stimulated human whole blood.; format: functional, tissue-based
Disintegrin and metalloproteinase domain-containing protein 17 (Homo sapiens, UniProt P78536), sequence (P78536 whole entry, the tested form may be a part): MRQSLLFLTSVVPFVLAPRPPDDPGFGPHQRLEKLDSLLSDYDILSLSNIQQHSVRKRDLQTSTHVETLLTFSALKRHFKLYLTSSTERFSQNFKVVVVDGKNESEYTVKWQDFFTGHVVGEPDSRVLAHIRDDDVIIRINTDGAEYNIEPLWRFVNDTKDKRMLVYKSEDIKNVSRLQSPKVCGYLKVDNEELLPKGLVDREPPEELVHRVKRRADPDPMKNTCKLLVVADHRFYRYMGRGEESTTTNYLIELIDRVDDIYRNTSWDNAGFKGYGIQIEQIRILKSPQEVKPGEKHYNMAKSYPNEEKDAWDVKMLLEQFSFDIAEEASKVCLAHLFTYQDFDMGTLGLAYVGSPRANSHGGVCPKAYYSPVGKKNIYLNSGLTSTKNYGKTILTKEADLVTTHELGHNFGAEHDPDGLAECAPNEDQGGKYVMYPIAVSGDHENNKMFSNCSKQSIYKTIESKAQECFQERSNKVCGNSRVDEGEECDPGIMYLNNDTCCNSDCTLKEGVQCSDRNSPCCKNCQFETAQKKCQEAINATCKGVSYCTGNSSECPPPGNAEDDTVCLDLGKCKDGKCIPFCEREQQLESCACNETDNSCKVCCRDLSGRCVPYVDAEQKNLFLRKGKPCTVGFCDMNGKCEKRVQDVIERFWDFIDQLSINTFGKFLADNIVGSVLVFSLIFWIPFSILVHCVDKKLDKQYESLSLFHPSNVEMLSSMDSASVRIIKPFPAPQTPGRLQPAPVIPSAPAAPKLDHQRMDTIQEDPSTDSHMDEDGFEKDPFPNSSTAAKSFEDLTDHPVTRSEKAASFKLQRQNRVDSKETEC

Disintegrin and metalloproteinase domain-containing protein 17 (Sus scrofa, UniProt O77636), sequence (O77636 whole entry, the tested form may be a part): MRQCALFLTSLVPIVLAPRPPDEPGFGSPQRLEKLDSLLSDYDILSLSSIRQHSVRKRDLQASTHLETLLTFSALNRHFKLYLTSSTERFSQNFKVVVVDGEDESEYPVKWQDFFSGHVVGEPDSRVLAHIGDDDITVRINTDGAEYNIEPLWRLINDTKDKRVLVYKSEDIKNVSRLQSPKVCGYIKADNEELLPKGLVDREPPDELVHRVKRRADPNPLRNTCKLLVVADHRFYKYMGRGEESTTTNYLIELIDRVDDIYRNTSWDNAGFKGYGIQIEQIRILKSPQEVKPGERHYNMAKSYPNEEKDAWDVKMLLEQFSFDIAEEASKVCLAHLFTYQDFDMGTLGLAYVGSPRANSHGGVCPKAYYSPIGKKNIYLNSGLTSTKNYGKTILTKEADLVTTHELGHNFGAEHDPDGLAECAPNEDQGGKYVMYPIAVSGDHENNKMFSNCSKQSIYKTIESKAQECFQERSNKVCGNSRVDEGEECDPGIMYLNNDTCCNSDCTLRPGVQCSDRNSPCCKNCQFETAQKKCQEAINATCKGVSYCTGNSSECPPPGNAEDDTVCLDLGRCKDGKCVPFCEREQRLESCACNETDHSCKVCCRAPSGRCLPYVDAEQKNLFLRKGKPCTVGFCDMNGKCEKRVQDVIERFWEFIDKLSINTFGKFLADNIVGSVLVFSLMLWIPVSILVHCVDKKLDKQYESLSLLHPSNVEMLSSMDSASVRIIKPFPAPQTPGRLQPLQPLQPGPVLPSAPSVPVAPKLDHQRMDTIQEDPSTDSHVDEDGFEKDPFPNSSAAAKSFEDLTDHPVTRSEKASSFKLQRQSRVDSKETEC
72 kDa type IV collagenase, sequence (P08253 whole entry, the tested form may be a part): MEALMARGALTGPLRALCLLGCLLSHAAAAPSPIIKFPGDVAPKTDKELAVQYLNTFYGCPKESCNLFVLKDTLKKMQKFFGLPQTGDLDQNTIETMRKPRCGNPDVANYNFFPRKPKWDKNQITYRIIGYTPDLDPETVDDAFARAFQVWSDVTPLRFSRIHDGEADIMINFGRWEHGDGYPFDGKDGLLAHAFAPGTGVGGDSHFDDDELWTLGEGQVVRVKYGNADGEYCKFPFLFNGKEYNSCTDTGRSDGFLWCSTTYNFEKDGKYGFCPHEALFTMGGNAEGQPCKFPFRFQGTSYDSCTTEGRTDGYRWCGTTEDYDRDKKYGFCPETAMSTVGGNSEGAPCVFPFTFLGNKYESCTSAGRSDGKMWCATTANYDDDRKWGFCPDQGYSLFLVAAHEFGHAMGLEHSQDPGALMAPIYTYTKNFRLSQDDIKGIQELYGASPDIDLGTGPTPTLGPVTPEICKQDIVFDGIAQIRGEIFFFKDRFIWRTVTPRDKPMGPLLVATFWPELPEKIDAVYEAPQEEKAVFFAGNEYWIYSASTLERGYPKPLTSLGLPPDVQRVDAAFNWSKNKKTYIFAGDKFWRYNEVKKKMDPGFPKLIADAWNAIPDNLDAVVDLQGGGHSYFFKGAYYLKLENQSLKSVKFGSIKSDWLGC
Matrix metalloproteinase-9, sequence (P14780 whole entry, the tested form may be a part): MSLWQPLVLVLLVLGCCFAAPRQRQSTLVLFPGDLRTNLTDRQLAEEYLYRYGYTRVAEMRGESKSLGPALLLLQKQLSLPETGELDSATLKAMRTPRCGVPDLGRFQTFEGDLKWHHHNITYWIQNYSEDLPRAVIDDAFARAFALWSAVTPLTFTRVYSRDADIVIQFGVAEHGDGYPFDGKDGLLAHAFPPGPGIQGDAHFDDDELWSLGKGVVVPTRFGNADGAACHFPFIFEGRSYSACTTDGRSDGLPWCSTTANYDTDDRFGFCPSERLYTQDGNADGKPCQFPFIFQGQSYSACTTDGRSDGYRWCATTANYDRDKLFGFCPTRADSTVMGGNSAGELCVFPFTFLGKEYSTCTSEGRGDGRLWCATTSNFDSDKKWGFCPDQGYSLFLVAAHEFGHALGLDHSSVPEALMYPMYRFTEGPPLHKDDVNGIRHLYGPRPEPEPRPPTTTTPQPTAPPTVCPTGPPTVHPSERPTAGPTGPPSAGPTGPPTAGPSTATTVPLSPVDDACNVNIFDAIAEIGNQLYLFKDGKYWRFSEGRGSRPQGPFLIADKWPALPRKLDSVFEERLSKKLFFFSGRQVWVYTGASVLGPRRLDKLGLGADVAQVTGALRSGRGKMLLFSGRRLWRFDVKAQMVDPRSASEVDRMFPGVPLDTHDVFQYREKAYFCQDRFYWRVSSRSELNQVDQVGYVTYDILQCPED

## Cc1cc(COc2ccc(N3CC[C@H]([C@H](N)C(=O)NO)C3=O)cc2)c2ccccc2n1
Interstitial collagenase
  Ki: > 5000 nM
[1]
  Ki: 1960 nM
[2]
  IC50: 2 nM
[3]
  Ki: 446 nM
[4]
  IC50: 1700 nM

## Cc1cc(COc2ccc(N3CC[C@](N)(CC(=O)NO)C3=O)cc2)c2ccccc2n1
Interstitial collagenase
  Ki: > 5000 nM
[1]
  Ki: > 2000 nM
[2]
  IC50: 5 nM
[3]
  Ki: > 3000 nM
[4]
  IC50: 4800 nM

## Cc1cc(COc2ccc(N3CC[C@H]([C@H](O)C(=O)NO)C3=O)cc2)c2ccccc2n1
Interstitial collagenase
  Ki: > 5000 nM
[1]
  Ki: > 2000 nM
[2]
  IC50: 3 nM
[3]
  Ki: > 3000 nM
[4]
  IC50: 2400 nM

## Cc1cc(COc2ccc(N3CC[C@](N)([C@H](C)C(=O)NO)C3=O)cc2)c2ccccc2n1
Interstitial collagenase
  Ki: > 5000 nM
[1]
  Ki: > 2000 nM
[2]
  IC50: 2 nM
[3]
  Ki: > 3000 nM
[4]
  IC50: 1100 nM

## Cc1cc(COc2ccc(N3CC[C@H]([C@H](NC(=O)N4CCOCC4)C(=O)NO)C3=O)cc2)c2ccccc2n1
Interstitial collagenase
  Ki: > 5000 nM
[1]
  Ki: > 2000 nM
[2]
  IC50: < 1 nM
[3]
  Ki: 805 nM
[4]
  IC50: 840 nM

## C[C@@H]([C@H]1CCN(c2ccc(OCc3ccccc3)cc2)C1=O)N(O)C=O
Interstitial collagenase
  Ki: > 5000 nM
[1]
  Ki: > 2000 nM
[2]
  IC50: 111 nM
[3]
  Ki: > 567 nM
[4]
  IC50: > 10000 nM

## CCC[C@@H](C(=O)NO)[C@H]1CCN(c2ccc(OCc3cc(C)nc4ccccc34)cc2)C1=O
Interstitial collagenase
  Ki: > 5000 nM
[1]
  Ki: > 2000 nM
[2]
  IC50: 140 nM
[3]
  Ki: > 3000 nM

## CCC[C@@H](C(=O)NO)[C@@]1(N)CCN(c2ccc(OCc3cc(C)nc4ccccc34)cc2)C1=O
Interstitial collagenase
  Ki: > 5000 nM
[1]
  Ki: > 2000 nM
[2]
  IC50: 405 nM
[3]
  Ki: > 3000 nM
[4]
  IC50: > 10000 nM

## Cc1cc(COc2ccc(N3CC[C@@]([C@H](C)C(=O)NO)(N(C)C)C3=O)cc2)c2ccccc2n1
Interstitial collagenase
  Ki: > 5000 nM
[1]
  Ki: 1300 nM
[2]
  IC50: 12 nM
[4]
  IC50: > 3000 nM

## Cc1cc(COc2ccc(N3CC[C@H]([C@@H](C(=O)NO)N(C)C)C3=O)cc2)c2ccccc2n1
Interstitial collagenase
  Ki: > 5000 nM
[1]
  Ki: > 2000 nM
[2]
  IC50: 7 nM
[3]
  Ki: > 3000 nM
[4]
  IC50: 1500 nM

## CCCCOC(=O)N[C@H](C(=O)NO)[C@H]1CCN(c2ccc(OCc3cc(C)nc4ccccc34)cc2)C1=O
Interstitial collagenase
  Ki: > 1630 nM
[1]
  Ki: > 2000 nM
[2]
  IC50: 2 nM
[3]
  Ki: > 305 nM
[4]
  IC50: 6830 nM

## COC(=O)N[C@H](C(=O)NO)[C@H]1CCN(c2ccc(OCc3cc(C)nc4ccccc34)cc2)C1=O
Interstitial collagenase
  Ki: > 5000 nM
[1]
  Ki: > 2000 nM
[2]
  IC50: < 1 nM
[3]
  Ki: 482 nM
[4]
  IC50: 2650 nM

## Cc1cc(COc2ccc(N3CC[C@H]([C@@H](C)C(=O)NO)C3=O)cc2)c2ccccc2n1
Interstitial collagenase
  Ki: > 5000 nM
[1]
  Ki: > 2000 nM
[2]
  IC50: 52 nM
[3]
  Ki: > 3000 nM
[4]
  IC50: > 3000 nM

## Cc1cc(COc2ccc(N3CC[C@H]([C@@H](C(=O)NO)N4CCCC4)C3=O)cc2)c2ccccc2n1
Interstitial collagenase
  Ki: > 5000 nM
[1]
  Ki: > 2000 nM
[2]
  IC50: 26 nM
[3]
  Ki: > 3000 nM
[4]
  IC50: > 10000 nM

## Cc1cc(COc2ccc(N3CC[C@H]([C@H](NC(=O)OC(C)(C)C)C(=O)NO)C3=O)cc2)cc(C)n1
Interstitial collagenase
  Ki: 2240 nM
[2]
  IC50: 6 nM
[3]
  Ki: > 3000 nM
[4]
  IC50: > 3000 nM

## CCC[C@H](C(=O)NO)[C@@]1(N)CCN(c2ccc(OCc3cc(C)nc4ccccc34)cc2)C1=O
Interstitial collagenase
  Ki: > 5000 nM
[1]
  Ki: > 2000 nM
[2]
  IC50: 4 nM
[3]
  Ki: > 3000 nM
[4]
  IC50: > 3000 nM

## Cc1cc(COc2ccc(N3CC[C@H]([C@H](NC(=O)c4ccccc4)C(=O)NO)C3=O)cc2)c2ccccc2n1
Interstitial collagenase
  Ki: > 5000 nM
[1]
  Ki: > 2000 nM
[2]
  IC50: 1 nM
[3]
  Ki: 435 nM
[4]
  IC50: 9100 nM

## Cc1cc(COc2ccc(N3CC[C@H]([C@H](C)N(O)C=O)C3=O)cc2)c2ccccc2n1
Interstitial collagenase
  Ki: > 5000 nM
[1]
  Ki: > 2000 nM
[2]
  IC50: 2 nM
[3]
  Ki: > 3000 nM
[4]
  IC50: 8700 nM

## Cc1cc(COc2ccc(N3CC[C@H]([C@H](NC(=O)OC(C)(C)C)C(=O)NO)C3=O)cc2)c2ccccc2n1
Interstitial collagenase
  Ki: 788 nM
[1]
  Ki: 291 nM
[2]
  IC50: 1 nM
[3]
  Ki: 324 nM
[4]
  IC50: 420 nM

## CC(=O)N[C@H](C(=O)NO)[C@H]1CCN(c2ccc(OCc3cc(C)nc4ccccc34)cc2)C1=O
Interstitial collagenase
  Ki: > 5000 nM
[1]
  Ki: > 2000 nM
[2]
  IC50: 1 nM
[3]
  Ki: 194 nM
[4]
  IC50: 1560 nM

## Cc1cc(COc2ccc(N3CC[C@H]([C@H](NC(=O)C(C)(C)C)C(=O)NO)C3=O)cc2)c2ccccc2n1
Interstitial collagenase
  Ki: > 5000 nM
[1]
  Ki: > 2000 nM
[2]
  IC50: < 1 nM
[3]
  Ki: 1240 nM
[4]
  IC50: 4950 nM

## Cc1cc(COc2ccc(N3CC[C@H]([C@H](C)C(=O)NO)C3=O)cc2)c2ccccc2n1
Interstitial collagenase
  Ki: > 5000 nM
[1]
  Ki: > 2000 nM
[2]
  IC50: 1 nM
[3]
  Ki: > 1270 nM
[4]
  IC50: 1570 nM

## Cc1cc(COc2ccc(N3CC[C@H]([C@H](N)C(=O)NO)C3=O)cc2)cc(C)n1
Interstitial collagenase
  Ki: > 5000 nM
[1]
  Ki: > 2000 nM
[2]
  IC50: 50 nM
[3]
  Ki: > 3000 nM
[4]
  IC50: > 10000 nM

Source: ChEMBL document CHEMBL1136542, “Discovery of N-hydroxy-2-(2-oxo-3-pyrrolidinyl)acetamides as potent and selective inhibitors of tumor necrosis factor-alpha converting enzyme (TACE)” (Bioorg Med Chem Lett, 2003)
